Experiments:
[1] = system: IL-1α-induced PGE2 release; assay: IL-1α-induced PGE2 release in human diploid lung fibroblasts (WI-38) (Assay 5); type: cell-based; conditions: Homo sapiens, WI-38 cells, IL-1α 1 nM, overnight
Procedure: (§1) Human diploid lung fibroblasts (WI-38 cells) were incubated overnight in the presence of IL-1α (1 nM) and test compound (3 and 30 μM) in modified Eagle medium at pH 7.3 containing foetal bovine serum (10%) at 37° C. The supernatant was assayed by radioimmunoassay for released PGE2 and the inhibition of PGE2 by test compound calculated (Table 10). The viability of the cells was then assessed by washing with Roswell Park Memorial Institute medium and adding Alamar Blue reagent before being incubated at 37° C. for 4 h. Living cells take up Alamar Blue and emit fluorescence when excited. Fluorescence intensity was measured using a SpectroFluor Plus plate reader with excitation at 530 nm and emission at 590 nm (Table 10).

[2] = system: α-smooth muscle actin (α-SMA) mRNA; assay: Anti-remodelling activity in human lung fibroblasts (HFL1): TGFβ-induced α-SMA mRNA (Assay 4); type: cell-based; conditions: Homo sapiens, HFL1 cells, TGFβ 10 ng/ml, 24 h, read-out: Inhibition of α-SMA mRNA synthesis (%)
Procedure: A human foetal lung fibroblast cell line (HFL1 cells; ATCC accession number CCl-153) was used in this assay. The cells were cultured in medium containing a low level of foetal bovine serum (FBS; 0.1%) for 24 h. After 24 h of culturing the medium was changed to: (a) Control medium (medium containing 10% FBS, 1% phosphate saline and 0.5 mM L-glutamine), (b) Control medium and transforming growth factor beta (TGFβ; 10 ng/ml), (c) Control medium and TGFβ and test compounds (3 and 30 μM). The medium was collected after 24 h and the total mRNA extracted in Tri-reagent. The level of mRNA coding for α-smooth muscle actin (α-SMA) was assessed by real-time reverse transcription-polymerase chain reaction (rtRT-PCR) using primer couples that allow the amplification of α-SMA mRNA. Liver glyceraldehydes 3-phosphate dehydrogenase (GADPH) was used as a reference marker in this experiment. The inhibition of the TGTβ-induced overexpression of α-SMA mRNA by the test compounds was quantified.

[3] = biological target: T1, 5-lipoxygenase (Homo sapiens, UniProt P09917); assay: 5-lipoxygenase activity (LTB4) in human peripheral blood mononuclear leukocytes (Assay 6); type: cell-based; conditions: human PBMLs, A23187 30 μM, read-out: Inhibition of 5-LO (%)
T1 construct: endogenous in cells; host or cells: human peripheral blood mononuclear leukocytes (PBMLs)
T1 sequence (P09917 1-674): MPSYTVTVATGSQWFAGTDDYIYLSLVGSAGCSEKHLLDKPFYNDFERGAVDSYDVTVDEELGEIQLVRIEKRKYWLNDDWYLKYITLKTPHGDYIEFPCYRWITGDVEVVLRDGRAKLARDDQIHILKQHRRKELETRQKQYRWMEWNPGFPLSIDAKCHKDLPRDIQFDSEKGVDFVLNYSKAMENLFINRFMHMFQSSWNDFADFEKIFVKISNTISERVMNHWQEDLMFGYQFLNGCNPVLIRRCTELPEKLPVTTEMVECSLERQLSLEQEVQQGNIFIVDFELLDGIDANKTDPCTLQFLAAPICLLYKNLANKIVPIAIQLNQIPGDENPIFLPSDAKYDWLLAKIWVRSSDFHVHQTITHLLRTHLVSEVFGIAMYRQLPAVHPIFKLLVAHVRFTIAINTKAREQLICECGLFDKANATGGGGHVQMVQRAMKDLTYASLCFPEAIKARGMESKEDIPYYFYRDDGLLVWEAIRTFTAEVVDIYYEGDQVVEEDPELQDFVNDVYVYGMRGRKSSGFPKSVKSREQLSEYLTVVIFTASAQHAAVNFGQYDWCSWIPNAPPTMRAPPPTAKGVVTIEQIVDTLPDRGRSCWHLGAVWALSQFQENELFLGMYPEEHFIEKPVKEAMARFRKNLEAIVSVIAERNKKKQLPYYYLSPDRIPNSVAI
Procedure: Human peripheral blood mononuclear leukocytes (PBMLs) were isolated using a Ficoll-Paque density gradient. Human peripheral blood mononuclear leukocytes (5×10^6 cells) were incubated with A23187 (30 μM), a divalent cation ionophore used to initiate the biosynthesis of […], and with vehicle (0.1% DMSO) or test compound (3 and 30 μM) in Hank's balanced salt solution (HBBS) buffer, pH 7.4 at 37° C. for 15 min. The PBML solution was neutralized with NaOH (1 N) and centrifuged at 1000 g for 10 min and the supernatant collected. The concentration of leukotriene B4 (LTB4) in the supernatant was measured using an enzyme immunoassay kit (Assay Design Inc.). A reduction in the concentration of LTB4 indicated an inhibition of the enzyme 5-lipoxygenase (Table 11).

[4] = biological target: TRPV1 receptor (Rattus norvegicus, UniProt O35433); assay: TRPV1 modulation in DRG neurones: CGRP release in absence and presence of capsaicin (Assay 2); type: cell-based; parameters: The culture used for this experiment contained sensory neurones, Schwann cells and fibroblasts; endogenous in cells; host or cells: primary rat DRG sensory neurone culture (with Schwann cells and fibroblasts); conditions: 20 min; for inhibition at 3 µM: 3 μM with capsaicin 1 μM; for Emax at 3 µM: test compound alone 3 μM; for Emax at 3 µM / Emax at 30 µM: rat DRG sensory neurones, read-out: CGRP release (% of capsaicin (1 μM) response); for Emax at 30 µM: test compound alone 30 μM
[5] = system: 5-HT-induced contractions in guinea pig ileum; assay: Inhibition of 5-HT-induced contractions in guinea pig ileum (Assay 3); conditions: Cavia porcellus, 5-HT 2.6 μM, read-out: Inhibition of 5-HT-induced contraction (%)
Procedure: (§2) Duncan Hartley derived male guinea pigs (325±25 g) were suppressed by CO2 overexposure, the abdominal cavity was exposed and ileal segments were removed. Small strips of ileum were suspended in organ baths containing Krebs solution (composition in g/l: NaCl 6.89, KCl 0.35, CaCl2 0.277, KH2PO4 0.163, MgSO4.7H2O 0.296, NaHCO3 2.1 glucose 1.8). The solution was kept at 32° C. and gassed with O2 (95%)-CO2 (5%) to maintain pH at 7.4. Mechanical activity was recorded by means of isotonic transducers. A resting tension of 1 g was applied to muscle strips before being equilibrated for 1 h, prior to test compound addition. Each preparation was washed twice at 15 min intervals during the equilibration.
(§3) Histamine (1.7 μM; approximately EC60-70) or 5-hydroxytryptamine (5-HT, 2.6 μM; approximately EC60-70) was applied for 5 min and the amplitude of the contraction recorded. The histamine or 5-HT was then washed out until the ileal tissue returned to baseline. Five min after returning to baseline test compound (3 and 30 μM) was applied and the amplitude of the contraction (if any) was recorded. In the continuous presence of test compound, histamine or 5-HT was re-applied and the inhibition of the response was recorded.

[6] = system: histamine-induced contractions in guinea pig ileum; assay: Inhibition of histamine-induced contractions in guinea pig ileum (Assay 3); conditions: Cavia porcellus, histamine 1.7 μM, read-out: Inhibition of histamine-induced contraction (%)
Procedure: as §2, §3

[7] = system: WI-38 cells; assay: Viability of WI-38 cells, Alamar Blue (Assay 5); type: cell-based, human
Procedure: as §1

[8] = −ve: inhibition, +ve: potentiation of capsaicin response, read-out: Effect of test compounds on capsaicin (1 μM)-induced CGRP release (%)
[9] = 30 μM with capsaicin 1 μM, −ve: inhibition, +ve: potentiation of capsaicin response, read-out: Effect of test compounds on capsaicin (1 μM)-induced CGRP release (%)

Chain of TRPV1 receptor (O35433 whole entry): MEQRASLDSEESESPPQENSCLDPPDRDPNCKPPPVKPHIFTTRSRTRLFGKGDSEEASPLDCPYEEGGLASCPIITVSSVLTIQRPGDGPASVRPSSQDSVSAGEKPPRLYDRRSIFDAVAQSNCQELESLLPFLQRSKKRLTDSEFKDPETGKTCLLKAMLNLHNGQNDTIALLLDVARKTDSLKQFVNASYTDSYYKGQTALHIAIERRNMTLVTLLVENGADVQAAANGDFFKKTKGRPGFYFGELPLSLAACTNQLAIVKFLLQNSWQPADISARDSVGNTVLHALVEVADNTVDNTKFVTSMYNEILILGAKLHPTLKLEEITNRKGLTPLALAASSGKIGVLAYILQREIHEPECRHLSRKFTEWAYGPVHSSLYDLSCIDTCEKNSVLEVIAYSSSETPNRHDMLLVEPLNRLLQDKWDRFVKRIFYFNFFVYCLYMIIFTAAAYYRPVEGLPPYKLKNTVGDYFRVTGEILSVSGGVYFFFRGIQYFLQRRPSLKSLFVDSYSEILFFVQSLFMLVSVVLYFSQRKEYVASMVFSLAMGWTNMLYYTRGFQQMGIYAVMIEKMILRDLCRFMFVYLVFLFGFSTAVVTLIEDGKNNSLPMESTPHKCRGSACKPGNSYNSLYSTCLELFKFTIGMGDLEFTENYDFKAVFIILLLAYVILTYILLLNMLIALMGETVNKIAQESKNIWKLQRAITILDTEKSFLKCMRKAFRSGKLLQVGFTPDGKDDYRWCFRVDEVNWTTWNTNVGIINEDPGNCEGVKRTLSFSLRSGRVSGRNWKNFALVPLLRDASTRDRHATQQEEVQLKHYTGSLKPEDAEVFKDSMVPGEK

| Compound | inhibition at 3 µM [3] | inhibition at 30 µM [3] | inhibition at 3 µM [4, 8] | inhibition at 30 µM [4, 9] | Emax at 3 µM [4] | Emax at 30 µM [4] | percent change in capsaicin-induced CGRP release (negative = inhibition, positive = potentiation) at 30 µM [4, 9] | inhibition at 3 µM [1] | inhibition at 30 µM [1] | inhibition at 3 µM [2] | inhibition at 30 µM [2] | inhibition at 3 µM [5] | inhibition at 30 µM [5] | inhibition at 3 µM [6] | inhibition at 30 µM [6] | Decrease in cell viability (%) ([7]; 3 μM) | Decrease in cell viability (%) ([7]; 30 μM) |
| --- | --- | --- | --- | --- | --- | --- | --- | --- | --- | --- | --- | --- | --- | --- | --- | --- | --- |
| COc1cc(CCC(=O)CC(=O)c2ccccc2Cl)ccc1O [Compound 74, 1-(2-Chlorophenyl)-5-(4-hydroxy-3-methoxyphenyl)pentane-1,3-dione] | 60% | 98% | 15% | 6% | 54% | 75% | – | 99% | 101% | -4% | 53% | 10% | 89% | 1% | 41% | 1% | 16% |
| COc1cc(CCC(=O)C(C)C(=O)c2ccc(O)c(OC)c2)ccc1O (stereo not shown) [Compound 16, 1,5-Bis(4-hydroxy-3-methoxyphenyl)-2-methyl-pentane-1,3-dione] | 20% | 73% | -49% | -49% | 53% | 52% | – | 32% | 83% | -8% | 10% | 0% | 28% | 4% | 22% | 10% | −9% |
| COc1cc(CCC(=O)C(Cc2ccccc2)C(=O)c2ccccc2)ccc1O (stereo not shown) [Compound 13, 2-Benzyl-5-(4-hydroxy-3-methoxyphenyl)-1-phenylpentane-1,3-dione] | 51% | 98% | 48% | -67% | 75% | 245% | – | 73% | 99% | 14% | 77% | 15% | 66% | 6% | 78% | −4% | −3% |
| COc1cc(CCC(=O)C(C)C(=O)c2ccc(C)cc2)ccc1O (stereo not shown) [Compound 14, 5-(4-Hydroxy-3-methoxylphenyl)-2-methyl-1-p-tolyl-pentane-1,3-dione] | 57% | 96% | -12% | 35% | 120% | 94% | – | 77% | 101% | 11% | 17% | 10% | 74% | 10% | 54% | 5% | −4% |
| COC(=O)c1ccc(C(=O)CC(=O)CCc2ccc(O)c(OC)c2)cc1 [Compound 25, Methyl 4-(5-(4-hydroxy-3-methoxyphenyl)-3-oxopentanoyl)benzoate] | 54% | 94% | 18% | 21% | 48% | 59% | – | 58% | 102% | -3% | 20% | 12% | 35% | 1% | 43% | −6% | 0% |

Continued, in another order:

| inhibition at 3 µM [3] | inhibition at 30 µM [3] | inhibition at 3 µM [4, 8] | inhibition at 30 µM [4, 9] | Emax at 3 µM [4] | Emax at 30 µM [4] | percent change in capsaicin-induced CGRP release (negative = inhibition, positive = potentiation) at 30 µM [4, 9] | Compound | inhibition at 3 µM [1] | inhibition at 30 µM [1] | inhibition at 3 µM [2] | inhibition at 30 µM [2] | inhibition at 3 µM [5] | inhibition at 30 µM [5] | inhibition at 3 µM [6] | inhibition at 30 µM [6] | Decrease in cell viability (%) ([7]; 3 μM) | Decrease in cell viability (%) ([7]; 30 μM) |
| --- | --- | --- | --- | --- | --- | --- | --- | --- | --- | --- | --- | --- | --- | --- | --- | --- | --- |
| 64% | 97% | 25% | -22% | 45% | 104% | – | COc1cc(CCC(=O)C(C)(C)C(=O)c2ccc(C)cc2)ccc1O [Compound 81, 5-(4-Hydroxy-3-methoxyphenyl)-2,2-dimethyl-1-p-tolylpentane-1,3-dione] | 62% | 101% | -2% | 55% | 21% | 95% | 22% | 94% | 3% | −7% |
| 52% | 99% | 11% | – | 66% | 144% | 0% | COc1cc(CCC(=O)CC(=O)c2ccc(C(C)(C)C)cc2)ccc1O [Compound 83, 1-(4-tert-Butylphenyl)-5-(4-hydroxy-3-methoxyphenyl)pentane-1,3-dione] | 86% | 102% | -2% | 86% | 4% | 11% | 16% | 17% | 4% | 31% |
